According to patent publication US20120214862A1, “MODULATION OF FACTOR 7 EXPRESSION” (ISIS Pharmaceuticals, Inc., priority 2009, published 2012):
In the oligonucleotide strings, read from the 5' end, every base follows the letter of its sugar. An asterisk marks phosphorothioate; unmarked linkages are phosphodiester. Other units and linkages are bracketed, terminal groups are in braces. A string of capitals states the bases alone. e = 2'-O-(2-methoxyethyl) (MOE); [5mC] = 5-methylcytosine; d = 2'-deoxy (DNA)

Tested on: human Factor 7 mRNA
Test: Antisense inhibition of human Factor 7 mRNA in HepB3 cells, lipofectin, 50 nM, real-time RT-PCR
Type: cell-based
Conditions: Example 1; HepB3 cells, lipofectin, 50 nM, ~24 h, relative to untreated control cells
Summary of the method: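 HepB3 cells were transfected by lipofectin with 50 nM antisense oligonucleotide and harvested after about 24 h. Factor 7 mRNA was measured by real-time RT-PCR (primer probe set RTS 2927 in some runs), normalized to RIBOGREEN total RNA, and reported as percent inhibition versus untreated control.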

| Substance | % Inhibition (human Factor 7 mRNA) |
| --- | --- |
| 407943 (antisense eG*e[5mC]*eA*eG*eG*d[5mC]*dA*d[5mC]*d[5mC]*dA*d[5mC]*dA*dG*dG*dT*eG*eT*eG*e[5mC]*eG) [compound 407943] | 34% |
| 407960 (antisense eG*eT*eG*e[5mC]*e[5mC]*d[5mC]*dA*dG*dG*dA*d[5mC]*dG*dG*d[5mC]*d[5mC]*e[5mC]*eT*eG*e[5mC]*eA) [compound 407960] | 53% |
| 407941 (antisense eG*eA*eG*eA*e[5mC]*dG*d[5mC]*dA*dG*d[5mC]*d[5mC]*dG*dT*dT*dT*eA*eT*eT*eG*eT) [compound 407941] | 65% |
| 407932 (antisense eG*eA*eA*e[5mC]*e[5mC]*dA*dG*dA*dA*dA*dA*dG*dT*dG*dA*eG*eA*eG*e[5mC]*eT) [compound 407932] | 55% |
| 407595 (antisense eT*e[5mC]*e[5mC]*eT*eG*dA*dG*dG*d[5mC]*d[5mC]*dT*dT*dA*dG*d[5mC]*eG*eA*e[5mC]*e[5mC]*e[5mC]) [compound 407595] | 71% |
| 407942 (antisense e[5mC]*eA*e[5mC]*eA*eG*dG*dT*dG*dT*dG*d[5mC]*dG*dG*dA*dG*eG*eA*eG*eA*e[5mC]) [compound 407942] | 41% |
| 407628 (antisense eT*eG*eA*eT*eG*dA*d[5mC]*d[5mC]*dT*dG*d[5mC]*dG*d[5mC]*d[5mC]*dA*e[5mC]*e[5mC]*e[5mC]*eG*e[5mC]) [compound 407628] | 38% |
| 407666 (antisense eT*e[5mC]*e[5mC]*e[5mC]*e[5mC]*dA*dG*dG*dA*d[5mC]*dA*dT*d[5mC]*dT*dG*eG*eA*eA*e[5mC]*eT) [compound 407666] | 52% |
| 407614 (antisense eT*eG*e[5mC]*eA*eG*dT*dA*d[5mC]*dT*dG*d[5mC]*dT*d[5mC]*dA*d[5mC]*eA*eG*e[5mC]*e[5mC]*eG) [compound 407614] | 78% |
| 407928 (antisense e[5mC]*eT*eT*eG*eG*d[5mC]*dT*dG*dA*dA*dG*dG*dG*dA*dG*eG*eT*eA*eA*eG) [compound 407928] | 55% |
| 407893 (antisense eT*e[5mC]*eG*eA*eA*dG*dG*d[5mC]*dA*dG*dG*dG*dA*dG*dG*e[5mC]*eA*eG*eA*eA) [compound 407893] | 33% |
| 407953 (antisense eA*e[5mC]*eA*eT*e[5mC]*d[5mC]*dA*dA*dT*dT*d[5mC]*d[5mC]*dA*d[5mC]*dA*eG*eG*eA*eT*e[5mC]) [compound 407953] | 20% |

Same assay, conditions: Example 4; HepB3 cells, lipofectin, 50 nM, ~24 h, relative to untreated control

| Substance | % Inhibition (human Factor 7 mRNA) |
| --- | --- |
| 422267 (antisense eG*e[5mC]*dG*d[5mC]*dG*dG*dA*dA*dG*dA*dA*dG*dG*dG*dA*e[5mC]*eG*eG*eA*eA) [compound 422267] | 38% |
| 422120 (antisense e[5mC]*eG*e[5mC]*eG*eG*dA*dA*dG*dA*dA*dG*dG*dG*dA*d[5mC]*eG*eG*eA*eA*eG) [compound 422120] | 40% |
| 422275 (antisense eG*eT*dT*dA*d[5mC]*dT*dG*dA*dG*d[5mC]*dG*d[5mC]*dG*dG*dA*eA*eG*eA*eA*eG) [compound 422275] | 42% |
| 422127 (antisense eT*eA*e[5mC]*eT*eG*dA*dG*d[5mC]*dG*d[5mC]*dG*dG*dA*dA*dG*eA*eA*eG*eG*eG) [compound 422127] | 17% |
| 422123 (antisense eG*eA*eG*e[5mC]*eG*d[5mC]*dG*dG*dA*dA*dG*dA*dA*dG*dG*eG*eA*e[5mC]*eG*eG) [compound 422123] | 16% |

Same assay, conditions: Example 6 microwalk, nucleobases 15098 to 15122 of SEQ ID NO: 1; HepB3, lipofectin, 50 nM, ~24 h

| Substance | % Inhibition (human Factor 7 mRNA) |
| --- | --- |
| 422284 (antisense e[5mC]*eA*d[5mC]*dA*d[5mC]*dA*dT*dG*dG*dA*dG*dT*d[5mC]*dA*dG*e[5mC]*eA*eT*e[5mC]*eG) [compound 422284] | 43% |

Same assay, conditions: HepB3 cells, lipofectin, 50 nM antisense oligonucleotide, approximately 24 hours, primer probe set RTS 2927, relative to untreated control

| Substance | % Inhibition of human Factor 7 mRNA levels |
| --- | --- |
| 416548 (antisense eA*eG*eG*eT*eG*dA*dA*dT*dG*dA*dA*dA*dT*dT*d[5mC]*eT*eA*e[5mC]*e[5mC]*eT) [compound 416548] | 29% |
| 416460 (antisense e[5mC]*eA*e[5mC]*e[5mC]*eA*d[5mC]*dA*dT*dG*dG*dT*d[5mC]*dA*dG*dT*eG*eA*eG*eG*eA) [compound 416460] | 49% |
| 416505 (antisense eG*e[5mC]*eA*eG*eA*dT*dT*dT*dG*d[5mC]*dA*dT*d[5mC]*dA*dG*eA*eA*eA*eA*eG) [compound 416505] | 45% |
| 416467 (antisense e[5mC]*e[5mC]*e[5mC]*eT*eG*dG*d[5mC]*d[5mC]*d[5mC]*d[5mC]*dA*dG*d[5mC]*dT*dG*eA*e[5mC]*eG*eA*eT) [compound 416467] | 55% |
| 416520 (antisense e[5mC]*e[5mC]*e[5mC]*eT*e[5mC]*dT*dG*d[5mC]*dA*dA*dA*dT*dA*dT*dG*eG*eG*eA*e[5mC]*e[5mC]) [compound 416520] | 14% |
| 416526 (antisense eT*eG*eT*e[5mC]*e[5mC]*dA*d[5mC]*dA*dT*dG*dA*d[5mC]*d[5mC]*d[5mC]*d[5mC]*eA*e[5mC]*eA*eG*eG) [compound 416526] | 19% |
| 416558 (antisense eT*eG*eA*e[5mC]*eA*dG*d[5mC]*dA*d[5mC]*dG*dA*dA*dG*d[5mC]*d[5mC]*e[5mC]*eA*eG*eA*eG) [compound 416558] | 19% |
| 416563 (antisense eG*e[5mC]*e[5mC]*eT*eG*d[5mC]*dA*dT*dT*dT*d[5mC]*d[5mC]*d[5mC]*dA*dT*eT*eG*eG*e[5mC]*eA) [compound 416563] | 0% |
| 416504 (antisense eT*e[5mC]*eA*eG*eA*dA*dA*dA*dG*d[5mC]*dT*d[5mC]*dT*d[5mC]*dA*eA*eG*eA*eA*e[5mC]) [compound 416504] | 0% |
| 416434 (antisense e[5mC]*eT*eG*eT*eA*dA*dG*dA*dA*dA*dT*d[5mC]*d[5mC]*dA*dG*eA*eA*e[5mC]*eA*eG) [compound 416434] | 0% |
| 416536 (antisense e[5mC]*eG*eG*eG*eA*dA*dG*dG*d[5mC]*d[5mC]*dT*dG*d[5mC]*d[5mC]*d[5mC]*eT*eG*e[5mC]*eA*eG) [compound 416536] | 23% |
| 416525 (antisense eT*eA*eT*eG*eA*dG*dT*d[5mC]*d[5mC]*dT*dT*d[5mC]*dT*dA*dG*eT*eG*eA*eA*eT) [compound 416525] | 5% |
| 416422 (antisense eA*eG*e[5mC]*eG*eA*d[5mC]*d[5mC]*d[5mC]*d[5mC]*dG*d[5mC]*d[5mC]*dT*dG*d[5mC]*eA*eG*e[5mC]*e[5mC]*eA) [compound 416422] | 8% |
| 416482 (antisense e[5mC]*eA*eT*eG*eG*dT*dG*dA*dT*dG*d[5mC]*dT*dT*d[5mC]*dT*eG*eA*eA*eT*eT) [compound 416482] | 64% |

Same assay, conditions: HepB3 cells; gapmers (5-10-5, 3-14-3, 2-13-5 MOE) targeted to nucleobases 4868 to 4899 of SEQ ID NO: 1

| Substance | % Inhibition of human Factor 7 mRNA levels |
| --- | --- |
| 422220 (antisense e[5mC]*e[5mC]*e[5mC]*dG*dA*dG*dT*dT*d[5mC]*dT*dG*d[5mC]*dA*dG*dG*dA*dG*e[5mC]*eG*eG) [compound 422220] | 59% |

Same assay, conditions: HepB3 cells; gapmers targeted to nucleobases 11830 to 11869 of SEQ ID NO: 1 (Table 9)

| Substance | % Inhibition of human Factor 7 mRNA levels |
| --- | --- |
| 422240 (antisense eA*eG*dA*d[5mC]*dA*dA*dT*dG*dG*dT*d[5mC]*dA*dG*dG*dG*e[5mC]*eT*eG*eG*eT) [compound 422240] | 66% |
| 422249 (antisense eT*eG*dG*d[5mC]*dT*dG*dA*dG*dG*dA*dG*dA*d[5mC]*dA*dA*eT*eG*eG*eT*e[5mC]) [compound 422249] | 52% |
| 422231 (antisense eT*e[5mC]*dA*dG*dG*dG*d[5mC]*dT*dG*dG*dT*dT*dT*dT*dG*eG*eA*eG*eG*eA) [compound 422231] | 22% |
| 422233 (antisense eG*eG*dT*d[5mC]*dA*dG*dG*dG*d[5mC]*dT*dG*dG*dT*dT*dT*eT*eG*eG*eA*eG) [compound 422233] | 46% |

Same assay, conditions: HepB3 cells; gapmers targeted to nucleobases 13760 to 13789 of SEQ ID NO: 1 (Table 10)

| Substance | % Inhibition of human Factor 7 mRNA levels |
| --- | --- |
| 422181 (antisense eG*e[5mC]*e[5mC]*dA*d[5mC]*d[5mC]*d[5mC]*dG*d[5mC]*d[5mC]*dG*dG*d[5mC]*dT*d[5mC]*dT*dG*e[5mC]*eT*e[5mC]) [compound 422181] | 66% |
| 422112 (antisense e[5mC]*e[5mC]*eA*e[5mC]*e[5mC]*d[5mC]*dG*d[5mC]*d[5mC]*dG*dG*d[5mC]*dT*d[5mC]*dT*eG*e[5mC]*eT*e[5mC]*eA) [compound 422112] | 61% |
| 422180 (antisense e[5mC]*e[5mC]*eA*d[5mC]*d[5mC]*d[5mC]*dG*d[5mC]*d[5mC]*dG*dG*d[5mC]*dT*d[5mC]*dT*dG*d[5mC]*eT*e[5mC]*eA) [compound 422180] | 54% |

Same assay, conditions: HepB3 cells; gapmers targeted to nucleobases 15188 to 15211 of SEQ ID NO: 1 (Table 13)

| Substance | % Inhibition of human Factor 7 mRNA levels |
| --- | --- |
| 416482 (antisense e[5mC]*eA*eT*eG*eG*dT*dG*dA*dT*dG*d[5mC]*dT*dT*d[5mC]*dT*eG*eA*eA*eT*eT) [compound 416482] | 64% |
